Reference: the supplement of paper PMC10307832

Tests used:
Assay in all cases: relative viability (nuclei count vs DMSO), 5 days (fraction); higher = more cells survive
[1] = compound: C1/C(=C\C2=CC=CS2)/C(=O)/C(=C/C3=CC=CS3)/C1 + NC(=O)Nc1cc(-c2cccc(F)c2)sc1C(=O)N[C@H]1CCCNC1 [AZD7762] (partner 0.2 µM)
In short: (§1)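 Lung cancer cell lines, seeded in 1536-well plates, were treated the following day by pin tool with a single drug or with five library-drug doses (not always all listed) in √10 steps on top of a fixed anchor-drug dose. Cells were fixed and nuclei stained in one step after 5 days, and nuclei were counted. Relative viability is the nuclei count for treated wells divided by that for vehicle wells, reported as medians of duplicate plates.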

[2] = compound: C[C@]12O[C@H](C[C@]1(O)CO)n1c3ccccc3c3c4c(c5c6ccccc6n2c5c31)CNC4=O [Lestaurtinib] + CC(=O)Nc1cccc(-n2c(=O)n(C3CC3)c(=O)c3c(Nc4ccc(I)cc4F)n(C)c(=O)c(C)c32)c1 [Trametinib] (partner 0.02 µM)
In short: as §1

[3] = compound: C1/C(=C\C2=CC=CS2)/C(=O)/C(=C/C3=CC=CS3)/C1 + CS(=O)(=O)CCNCc1ccc(-c2ccc3ncnc(Nc4ccc(OCc5cccc(F)c5)c(Cl)c4)c3c2)o1 [Lapatinib] (partner 2 µM)
In short: as §1

Lestaurtinib + Olaparib = compound: C[C@]12O[C@H](C[C@]1(O)CO)n1c3ccccc3c3c4c(c5c6ccccc6n2c5c31)CNC4=O [Lestaurtinib] + O=C(c1cc(Cc2n[nH]c(=O)c3ccccc23)ccc1F)N1CCN(C(=O)C2CC2)CC1 [Olaparib] (partner 8 µM)
In short: as §1

Row | Cell Line | relative viability ([1]; first compound 0.2 µM) | relative viability ([1]; first compound 0.6325 µM) | relative viability ([1]; first compound 2 µM) | relative viability ([1]; first compound 6.325 µM) | relative viability ([1]; first compound 20 µM) | relative viability ([2]; first compound 0.005 µM) | relative viability ([2]; first compound 0.01581 µM) | relative viability ([2]; first compound 0.05 µM) | relative viability ([2]; first compound 0.1581 µM) | relative viability ([2]; first compound 0.5 µM) | relative viability ([3]; first compound 0.2 µM) | relative viability ([3]; first compound 0.6325 µM) | relative viability ([3]; first compound 2 µM) | relative viability ([3]; first compound 6.325 µM) | relative viability ([3]; first compound 20 µM) | relative viability (Lestaurtinib + Olaparib; first compound 0.005 µM) | relative viability (Lestaurtinib + Olaparib; first compound 0.01581 µM) | relative viability (Lestaurtinib + Olaparib; first compound 0.05 µM) | relative viability (Lestaurtinib + Olaparib; first compound 0.1581 µM) | relative viability (Lestaurtinib + Olaparib; first compound 0.5 µM)
1 | HOP-62 | 0.661 | 0.688 | 0.657 | 0.385 | 0.692 | 0.409 | 0.446 | 0.389 | 0.351 | 0.319 | 0.902 | 0.589 | 0.9 | 0.932 | 0.983 | 0.287 | 0.763 | 0.515 | 0.525 | 0.16
2 | LC-2-ad | 0.871 | 0.899 | 0.871 | 0.72 | 0.825 | 0.932 | 1.02 | 0.792 | 0.569 | 0.505 | 0.891 | 1.03 | 0.939 | 0.747 | 0.973 | 0.82 | 0.823 | 0.832 | 0.55 | 0.28
3 | LCLC-97TM1 | 0.3 | 0.254 | 0.259 | 0.252 | 0.14 | – | 0.196 | 0.199 | 0.157 | 0.226 | 1.14 | 0.806 | 1.15 | 0.955 | 1.18 | – | 0.456 | 0.299 | 0.185 | 0.188
4 | LK-2 | 0.548 | – | 0.562 | 0.408 | 0.421 | 0.778 | 0.941 | 0.718 | 0.65 | 0.293 | 0.897 | 0.887 | 1.2 | 1.05 | 0.988 | 0.767 | 0.896 | 0.602 | 0.466 | 0.133
5 | LOU-NH91 | 0.744 | 0.837 | 0.834 | 0.697 | 0.745 | 0.759 | 0.749 | 0.679 | 0.625 | 0.548 | 0.744 | 0.821 | 0.782 | 0.607 | 0.802 | 0.894 | 0.903 | 0.89 | 0.712 | 0.531
6 | LU99A | 0.413 | 0.295 | 0.415 | 0.248 | 0.29 | 0.55 | 0.522 | 0.439 | 0.231 | 0.145 | 0.914 | 0.958 | 1.23 | 0.785 | 0.95 | 0.211 | 0.25 | 0.161 | 0.196 | 0.142
7 | LXF-289 | 1.07 | 1.13 | 1.16 | 1 | 1.07 | 0.66 | 0.691 | 0.494 | 0.467 | 0.159 | 0.926 | 0.915 | 0.886 | 0.792 | 0.91 | 1.09 | 1.08 | 0.753 | 0.852 | 0.172
8 | NCI-H23 | 0.25 | 0.342 | 0.294 | 0.244 | 0.175 | 0.377 | 0.455 | 0.35 | 0.408 | 0.225 | 0.918 | 1.4 | 1.44 | 0.861 | 1.12 | 0.327 | 0.295 | 0.291 | 0.301 | 0.203
9 | NCI-H322M | 0.491 | 0.58 | 0.484 | 0.518 | 0.521 | 0.507 | 0.567 | – | 0.512 | 0.672 | 0.619 | 0.648 | 0.657 | 0.568 | 0.582 | 0.823 | 0.622 | – | 0.765 | 0.521
10 | NCI-H358 | 0.643 | 0.53 | 0.593 | 0.444 | 0.572 | 0.139 | 0.119 | 0.157 | 0.103 | 0.0891 | 0.435 | 0.482 | 0.475 | 0.459 | 0.424 | 0.548 | 0.396 | 0.408 | 0.322 | 0.141
11 | NCI-H460 | 0.684 | 0.595 | 0.634 | 0.618 | 0.609 | 0.237 | 0.201 | 0.144 | 0.142 | 0.0705 | 1.07 | 1.2 | 0.929 | – | 0.893 | 0.511 | 0.532 | 0.449 | 0.516 | 0.429
12 | NCI-H596 | 1.12 | 1.12 | 1.13 | 0.659 | 1.02 | 0.691 | 0.842 | 0.848 | 0.993 | 0.845 | 1.13 | 1.03 | 1.1 | 1 | 1.02 | 0.646 | 0.669 | 0.61 | 0.66 | 0.696
13 | NCI-H647 | 0.504 | 0.471 | 0.446 | 0.445 | 0.592 | 0.478 | 0.41 | 0.22 | 0.29 | 0.169 | 1.13 | 1.26 | 1.28 | 0.763 | 1 | 0.67 | 0.67 | 0.186 | 0.211 | 0.108
14 | NCI-H650 | 1.14 | 0.952 | 0.897 | 0.937 | 1.11 | 0.88 | 1.03 | 0.886 | 0.522 | 0.34 | 0.944 | 1.17 | 1.05 | 0.925 | 0.989 | 0.43 | 0.413 | 0.382 | 0.319 | 0.28
15 | NCI-H727 | 0.574 | 0.527 | 0.731 | – | 0.682 | 0.375 | 0.452 | 0.423 | – | 0.405 | 0.735 | 0.877 | 1.02 | 0.701 | 0.752 | 0.812 | 0.604 | 0.731 | – | 0.678
16 | NCI-H838 | 0.967 | 0.949 | 0.933 | 0.875 | 0.841 | 0.559 | 0.497 | 0.486 | 0.333 | 0.0966 | 1.01 | 0.889 | 0.994 | 0.926 | 0.866 | 0.911 | 0.796 | 0.549 | 0.348 | 0.162
17 | NCI-H1355 | 0.69 | 0.835 | 0.804 | 0.559 | 0.622 | 0.481 | 0.435 | 0.359 | 0.318 | 0.285 | 0.964 | 0.951 | 1.04 | 0.908 | 0.911 | 0.804 | 0.754 | 0.563 | 0.566 | 0.369
18 | NCI-H1395 | 0.36 | 0.356 | 0.405 | 0.411 | 0.414 | 1.17 | 0.896 | 0.927 | 0.923 | 0.608 | 1.04 | 1.13 | 1.11 | 0.886 | 1.15 | 0.498 | 0.494 | 0.426 | 0.406 | 0.369
19 | NCI-H1437 | 1.14 | 1.2 | 1.19 | 1.03 | 1.1 | 0.569 | 0.684 | 0.56 | 0.691 | 0.603 | 0.751 | 0.788 | 0.791 | 0.748 | 0.692 | 0.671 | 0.662 | 0.571 | 0.67 | 0.553
20 | NCI-H1651 | 0.474 | 0.511 | 0.486 | 0.505 | 0.45 | 0.86 | 0.919 | 0.887 | 0.832 | 0.77 | 0.81 | 0.93 | 0.793 | – | 0.769 | 0.166 | 0.199 | 0.17 | 0.169 | 0.147
21 | NCI-H1666 | 0.877 | 0.86 | 0.968 | 0.793 | 0.815 | 0.898 | 0.892 | 0.882 | 0.88 | 0.781 | 0.633 | 0.59 | 0.565 | 0.561 | 0.614 | 0.779 | 0.799 | 0.871 | 0.976 | 0.827
22 | NCI-H1734 | 0.591 | 0.57 | 0.551 | 0.415 | 0.523 | 0.788 | 0.788 | 0.712 | 0.478 | 0.267 | 1.02 | 1.05 | 1.17 | 0.906 | 1.09 | 0.647 | 0.626 | 0.578 | 0.533 | 0.271
23 | NCI-H1755 | 0.551 | 0.421 | 0.436 | 0.426 | 0.335 | 0.766 | 0.774 | 0.731 | 0.571 | 0.407 | 1.07 | 1.03 | 1.09 | 0.882 | 0.993 | 0.953 | 0.944 | 0.753 | 0.628 | 0.373
24 | NCI-H1792 | 0.772 | 0.755 | 0.75 | 0.521 | 0.587 | 0.429 | 0.516 | 0.339 | 0.386 | 0.244 | 0.819 | 0.915 | 1.04 | – | 0.899 | 0.593 | 0.495 | 0.434 | 0.267 | 0.164
25 | NCI-H1793 | 0.488 | 0.482 | 0.596 | 0.328 | 0.199 | 0.425 | 0.467 | 0.432 | 0.461 | 0.346 | 0.913 | 0.611 | 0.86 | 0.519 | 0.674 | 0.97 | 1.05 | 0.549 | 0.848 | 0.482
26 | NCI-H1915 | 0.73 | 0.67 | 0.689 | 0.642 | 0.677 | 0.318 | 0.254 | 0.253 | 0.12 | 0.0799 | 0.984 | 0.996 | 0.964 | 0.937 | 1.03 | 0.259 | 0.285 | 0.273 | 0.296 | 0.143
27 | NCI-H1944 | 0.502 | 0.461 | 0.526 | – | 0.442 | 0.408 | 0.464 | 0.386 | 0.345 | 0.292 | 0.735 | 0.695 | 0.864 | 0.782 | 0.748 | 0.437 | 0.479 | 0.34 | 0.419 | 0.344
